Reference: paper PMC3388080 (PLoS ONE, 2012)

Columns and labels:
[1] = tested on: ML2 (MT3); assay: CEREP radioligand binding
Experimental: (§1) SB-334867 was evaluated in a selectivity screen performed at CEREP (Paris, France). The screen consisted of binding assays on a panel of 79 target receptors. The specific binding (SB) of a radioligand to each target receptor was defined as the difference between the total binding and the nonspecific binding determined in the presence of a cold competitor in excess. […] Details on the CEREP screen are available from www.cerep.fr.

[2] = target: T1, H1 (h) (Homo sapiens, UniProt P35367); assay: CEREP radioligand binding; conditions: % of control specific binding
T1 construct: purchased CEREP
T1 sequence (P35367 whole entry): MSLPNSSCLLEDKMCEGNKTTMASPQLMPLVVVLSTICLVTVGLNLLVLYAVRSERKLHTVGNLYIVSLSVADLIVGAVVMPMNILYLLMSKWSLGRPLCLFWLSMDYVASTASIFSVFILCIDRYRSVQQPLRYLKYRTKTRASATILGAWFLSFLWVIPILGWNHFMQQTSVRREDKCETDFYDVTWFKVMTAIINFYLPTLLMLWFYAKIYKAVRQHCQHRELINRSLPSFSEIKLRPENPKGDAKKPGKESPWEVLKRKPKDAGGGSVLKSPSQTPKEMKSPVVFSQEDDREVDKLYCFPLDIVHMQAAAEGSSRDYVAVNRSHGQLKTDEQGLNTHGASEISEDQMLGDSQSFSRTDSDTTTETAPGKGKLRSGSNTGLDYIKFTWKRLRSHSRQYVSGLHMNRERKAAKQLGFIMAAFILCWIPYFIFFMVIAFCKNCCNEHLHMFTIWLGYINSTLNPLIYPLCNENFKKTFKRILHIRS
Experimental: as §1

[3] = target: T2, D4.4 (h) (Homo sapiens, UniProt P21917); assay: CEREP radioligand binding; conditions: % of control specific binding
T2 construct: purchased CEREP
Experimental: as §1

[4] = target: T3, D2S (h) (Homo sapiens, UniProt P14416); assay: CEREP radioligand binding; conditions: % of control specific binding
T3 construct: purchased CEREP
Experimental: as §1

[5] = target: T4, NT1 (h) (NTS1) (Homo sapiens, UniProt P30989); assay: CEREP radioligand binding; conditions: % of control specific binding
T4 construct: purchased CEREP
T4 sequence (P30989 whole entry): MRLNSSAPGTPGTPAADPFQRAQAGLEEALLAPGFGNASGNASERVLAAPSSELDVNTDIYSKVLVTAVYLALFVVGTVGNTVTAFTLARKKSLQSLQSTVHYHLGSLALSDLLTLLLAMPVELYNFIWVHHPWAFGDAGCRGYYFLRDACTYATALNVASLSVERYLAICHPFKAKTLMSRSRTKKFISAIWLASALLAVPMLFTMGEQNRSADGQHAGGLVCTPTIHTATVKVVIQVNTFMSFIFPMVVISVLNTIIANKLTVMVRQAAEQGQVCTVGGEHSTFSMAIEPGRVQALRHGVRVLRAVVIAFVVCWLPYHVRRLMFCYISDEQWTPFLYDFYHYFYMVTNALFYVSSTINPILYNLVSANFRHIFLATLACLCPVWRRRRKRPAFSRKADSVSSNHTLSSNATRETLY
Experimental: as §1

[6] = target: T5, TRH1 (h) (Homo sapiens, UniProt P34981); assay: CEREP radioligand binding; conditions: % of control specific binding
T5 construct: purchased CEREP
T5 sequence (P34981 whole entry): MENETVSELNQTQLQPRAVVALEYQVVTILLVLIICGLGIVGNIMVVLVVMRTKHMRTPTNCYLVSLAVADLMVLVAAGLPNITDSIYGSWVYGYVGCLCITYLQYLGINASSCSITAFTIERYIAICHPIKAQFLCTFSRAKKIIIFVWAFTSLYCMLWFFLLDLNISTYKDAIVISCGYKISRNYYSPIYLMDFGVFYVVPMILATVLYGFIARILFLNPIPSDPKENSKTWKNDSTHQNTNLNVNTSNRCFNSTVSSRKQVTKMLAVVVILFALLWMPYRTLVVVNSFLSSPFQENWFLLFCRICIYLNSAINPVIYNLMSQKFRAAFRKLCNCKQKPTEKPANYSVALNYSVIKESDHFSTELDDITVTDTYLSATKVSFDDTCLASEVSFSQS
Experimental: as §1

[7] = target: T6, 5-HT transporter (h) (Homo sapiens, UniProt P31645); assay: CEREP radioligand binding; conditions: % of control specific binding
T6 construct: purchased CEREP
T6 sequence (P31645 whole entry): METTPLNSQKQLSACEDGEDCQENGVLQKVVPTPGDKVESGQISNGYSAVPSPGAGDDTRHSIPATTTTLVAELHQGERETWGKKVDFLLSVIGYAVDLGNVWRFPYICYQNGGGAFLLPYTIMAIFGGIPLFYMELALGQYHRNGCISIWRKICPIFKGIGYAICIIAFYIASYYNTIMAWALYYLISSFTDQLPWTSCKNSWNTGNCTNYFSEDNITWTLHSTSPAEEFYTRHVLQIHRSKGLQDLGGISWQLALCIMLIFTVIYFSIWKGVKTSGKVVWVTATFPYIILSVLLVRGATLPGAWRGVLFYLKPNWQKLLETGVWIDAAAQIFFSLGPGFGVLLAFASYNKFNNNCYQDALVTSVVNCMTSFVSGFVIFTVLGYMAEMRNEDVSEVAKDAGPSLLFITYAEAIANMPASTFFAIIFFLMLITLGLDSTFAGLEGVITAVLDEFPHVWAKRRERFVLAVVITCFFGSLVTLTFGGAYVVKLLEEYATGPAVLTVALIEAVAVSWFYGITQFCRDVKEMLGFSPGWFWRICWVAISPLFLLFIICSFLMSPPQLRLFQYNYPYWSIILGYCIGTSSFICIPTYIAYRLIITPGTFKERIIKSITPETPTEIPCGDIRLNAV
Experimental: as §1

[8] = target: T7, D5 (h) (Homo sapiens, UniProt P21918); assay: CEREP radioligand binding; conditions: % of control specific binding
T7 construct: purchased CEREP
Experimental: as §1

[9] = target: T8, A2A (h) (Homo sapiens, UniProt P29274); assay: CEREP radioligand binding
T8 construct: purchased CEREP
T8 sequence (P29274 whole entry): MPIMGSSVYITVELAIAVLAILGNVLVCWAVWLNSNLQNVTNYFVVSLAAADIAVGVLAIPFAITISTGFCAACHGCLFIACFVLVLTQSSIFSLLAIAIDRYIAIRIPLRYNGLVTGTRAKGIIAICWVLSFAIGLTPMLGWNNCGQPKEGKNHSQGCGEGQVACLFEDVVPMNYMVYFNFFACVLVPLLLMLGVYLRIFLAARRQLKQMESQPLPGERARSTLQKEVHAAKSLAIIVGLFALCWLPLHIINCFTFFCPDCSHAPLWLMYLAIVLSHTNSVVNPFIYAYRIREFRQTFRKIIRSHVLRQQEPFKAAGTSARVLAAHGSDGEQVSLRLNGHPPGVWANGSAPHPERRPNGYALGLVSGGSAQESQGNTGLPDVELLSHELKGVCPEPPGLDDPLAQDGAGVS
Experimental: as §1

[10] = target: T9, 5-HT6 (h) (Homo sapiens, UniProt P50406); assay: CEREP radioligand binding; conditions: % of control specific binding
T9 construct: purchased CEREP
Experimental: as §1

[11] = tested on: sigma (non-selective); assay: CEREP radioligand binding; conditions: % of control specific binding
Experimental: as §1

[12] = target: T10, 5-HT2C (h) (Homo sapiens, UniProt P28335); assay: CEREP radioligand binding
T10 construct: purchased CEREP
T10 sequence (P28335 33-458): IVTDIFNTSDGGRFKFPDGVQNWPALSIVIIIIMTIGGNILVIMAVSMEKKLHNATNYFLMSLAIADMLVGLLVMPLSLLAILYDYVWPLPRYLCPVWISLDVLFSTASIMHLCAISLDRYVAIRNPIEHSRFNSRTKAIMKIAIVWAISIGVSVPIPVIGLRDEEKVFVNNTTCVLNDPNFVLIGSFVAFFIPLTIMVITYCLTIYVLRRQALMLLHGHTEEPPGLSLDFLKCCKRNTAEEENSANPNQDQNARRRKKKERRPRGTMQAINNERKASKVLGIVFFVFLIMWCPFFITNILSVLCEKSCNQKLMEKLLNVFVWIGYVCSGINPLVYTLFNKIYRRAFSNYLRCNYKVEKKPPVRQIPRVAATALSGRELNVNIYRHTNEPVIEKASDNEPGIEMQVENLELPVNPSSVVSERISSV
Experimental: as §1

[13] = target: T11, PACAP (h) (PAC1) (Homo sapiens, UniProt P41586); assay: CEREP radioligand binding; conditions: % of control specific binding
T11 construct: purchased CEREP
Experimental: as §1

[14] = target: T12, ETB (h) (Homo sapiens, UniProt P24530); assay: CEREP radioligand binding; conditions: % of control specific binding
T12 construct: purchased CEREP
Experimental: as §1

[15] = target: T13, 5-HT1B (Rattus norvegicus, UniProt P28564); assay: CEREP radioligand binding; conditions: % of control specific binding
T13 construct: purchased CEREP
T13 sequence (P28564 whole entry): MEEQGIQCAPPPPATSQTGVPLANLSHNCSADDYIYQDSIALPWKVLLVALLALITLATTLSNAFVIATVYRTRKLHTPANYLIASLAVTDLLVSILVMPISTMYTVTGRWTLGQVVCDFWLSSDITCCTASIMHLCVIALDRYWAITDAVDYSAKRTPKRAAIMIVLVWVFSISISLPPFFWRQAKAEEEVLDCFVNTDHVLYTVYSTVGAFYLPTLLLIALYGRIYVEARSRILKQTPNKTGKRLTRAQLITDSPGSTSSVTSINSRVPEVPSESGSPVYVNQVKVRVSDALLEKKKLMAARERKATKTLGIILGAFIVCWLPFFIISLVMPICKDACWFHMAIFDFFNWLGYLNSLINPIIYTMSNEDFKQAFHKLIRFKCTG
Experimental: as §1

[16] = target: T14, M1 (h) (Homo sapiens, UniProt P11229); assay: CEREP radioligand binding; conditions: % of control specific binding
T14 construct: purchased CEREP
Experimental: as §1

[17] = target: T15, GAL2 (h) (Homo sapiens, UniProt O43603); assay: CEREP radioligand binding; conditions: % of control specific binding
T15 construct: purchased CEREP
Experimental: as §1

[18] = target: T16, 5-HT5A (h) (Homo sapiens, UniProt P47898); assay: CEREP radioligand binding; conditions: % of control specific binding
T16 construct: purchased CEREP
Experimental: as §1

[19] = tested on: PCP; assay: CEREP radioligand binding; conditions: % of control specific binding
Experimental: as §1

[20] = target: T17, 5-HT1A (h) (Homo sapiens, UniProt P08908); assay: CEREP radioligand binding; conditions: % of control specific binding
T17 construct: purchased CEREP
T17 sequence (P08908 whole entry): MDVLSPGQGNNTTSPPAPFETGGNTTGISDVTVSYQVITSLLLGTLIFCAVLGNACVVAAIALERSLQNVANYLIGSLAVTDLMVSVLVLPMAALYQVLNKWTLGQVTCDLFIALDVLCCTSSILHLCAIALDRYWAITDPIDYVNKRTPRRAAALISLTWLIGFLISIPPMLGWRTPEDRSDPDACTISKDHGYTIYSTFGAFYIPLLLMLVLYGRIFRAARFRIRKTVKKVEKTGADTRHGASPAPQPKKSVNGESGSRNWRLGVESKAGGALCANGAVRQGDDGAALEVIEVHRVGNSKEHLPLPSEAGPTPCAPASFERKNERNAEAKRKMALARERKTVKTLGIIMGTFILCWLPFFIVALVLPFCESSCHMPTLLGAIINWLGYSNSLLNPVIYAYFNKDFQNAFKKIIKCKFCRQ
Experimental: as §1

[21] = target: T18, V1a (h) (Homo sapiens, UniProt P37288); assay: CEREP radioligand binding; conditions: % of control specific binding
T18 construct: purchased CEREP
T18 sequence (P37288 whole entry): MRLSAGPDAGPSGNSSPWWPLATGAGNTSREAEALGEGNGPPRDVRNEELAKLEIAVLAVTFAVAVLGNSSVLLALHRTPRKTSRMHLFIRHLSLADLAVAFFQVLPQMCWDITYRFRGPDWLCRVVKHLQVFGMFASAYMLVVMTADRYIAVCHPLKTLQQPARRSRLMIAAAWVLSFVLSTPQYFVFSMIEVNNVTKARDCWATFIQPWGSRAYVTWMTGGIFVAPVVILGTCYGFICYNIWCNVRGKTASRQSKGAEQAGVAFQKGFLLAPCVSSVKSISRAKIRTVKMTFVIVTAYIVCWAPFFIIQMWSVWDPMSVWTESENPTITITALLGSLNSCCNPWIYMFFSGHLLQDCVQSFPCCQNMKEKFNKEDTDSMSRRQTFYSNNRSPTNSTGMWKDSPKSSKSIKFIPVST
Experimental: as §1

[22] = target: T19, AT1 (h) (Homo sapiens, UniProt P30556); assay: CEREP radioligand binding; conditions: % of control specific binding
T19 construct: purchased CEREP
Experimental: as §1

[23] = target: T20, M5 (h) (Homo sapiens, UniProt P08912); assay: CEREP radioligand binding; conditions: % of control specific binding
T20 construct: purchased CEREP
Experimental: as §1

[24] = tested on: BZD (central); assay: CEREP radioligand binding; conditions: % of control specific binding
Experimental: as §1

[25] = tested on: alpha 2 (non-selective); assay: CEREP radioligand binding; conditions: % of control specific binding
Experimental: as §1

[26] = tested on: K+V channel; assay: CEREP radioligand binding; conditions: % of control specific binding
Experimental: as §1

[27] = target: T21, B2 (h) (Homo sapiens, UniProt P30411); assay: CEREP radioligand binding; conditions: % of control specific binding
T21 construct: purchased CEREP
T21 sequence (P30411 whole entry): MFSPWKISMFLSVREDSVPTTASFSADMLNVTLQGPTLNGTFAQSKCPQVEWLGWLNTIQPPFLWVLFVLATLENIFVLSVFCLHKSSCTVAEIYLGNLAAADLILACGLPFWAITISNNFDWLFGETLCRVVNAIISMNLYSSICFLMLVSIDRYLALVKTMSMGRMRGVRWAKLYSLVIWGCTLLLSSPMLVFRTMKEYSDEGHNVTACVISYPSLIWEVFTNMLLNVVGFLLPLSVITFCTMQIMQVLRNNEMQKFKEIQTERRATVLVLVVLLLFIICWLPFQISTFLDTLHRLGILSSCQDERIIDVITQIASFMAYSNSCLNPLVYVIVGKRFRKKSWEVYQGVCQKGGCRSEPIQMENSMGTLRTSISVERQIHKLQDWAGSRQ
Experimental: as §1

[28] = target: T22, A3 (h) (Homo sapiens, UniProt P0DMS8); assay: CEREP radioligand binding
T22 construct: purchased CEREP
T22 sequence (P0DMS8 whole entry): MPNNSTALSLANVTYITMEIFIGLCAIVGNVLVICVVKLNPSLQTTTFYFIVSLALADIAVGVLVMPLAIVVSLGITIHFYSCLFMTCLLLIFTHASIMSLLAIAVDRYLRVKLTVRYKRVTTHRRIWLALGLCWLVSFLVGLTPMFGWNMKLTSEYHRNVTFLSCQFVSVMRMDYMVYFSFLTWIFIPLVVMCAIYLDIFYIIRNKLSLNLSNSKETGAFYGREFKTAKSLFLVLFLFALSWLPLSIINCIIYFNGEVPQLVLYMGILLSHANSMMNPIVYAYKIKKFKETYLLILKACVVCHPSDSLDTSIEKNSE
Experimental: as §1

[29] = tested on: Ca2+ channel (L, verapamil site) (phenylalkylamines); assay: CEREP radioligand binding; conditions: % of control specific binding
Experimental: as §1

[30] = tested on: P2Y; assay: CEREP radioligand binding
Experimental: as §1

[31] = target: T23, ETA (h) (Homo sapiens, UniProt P25101); assay: CEREP radioligand binding; conditions: % of control specific binding
T23 construct: purchased CEREP
Experimental: as §1

[32] = target: T24, HCRTR1 (Rattus norvegicus, UniProt P56718); assay: in vivo; format: in vivo
T24 construct: from tissue; host or cells: coronal brain sections of male Sprague-Dawley rats (locus coeruleus)
T24 sequence (P56718 1-416): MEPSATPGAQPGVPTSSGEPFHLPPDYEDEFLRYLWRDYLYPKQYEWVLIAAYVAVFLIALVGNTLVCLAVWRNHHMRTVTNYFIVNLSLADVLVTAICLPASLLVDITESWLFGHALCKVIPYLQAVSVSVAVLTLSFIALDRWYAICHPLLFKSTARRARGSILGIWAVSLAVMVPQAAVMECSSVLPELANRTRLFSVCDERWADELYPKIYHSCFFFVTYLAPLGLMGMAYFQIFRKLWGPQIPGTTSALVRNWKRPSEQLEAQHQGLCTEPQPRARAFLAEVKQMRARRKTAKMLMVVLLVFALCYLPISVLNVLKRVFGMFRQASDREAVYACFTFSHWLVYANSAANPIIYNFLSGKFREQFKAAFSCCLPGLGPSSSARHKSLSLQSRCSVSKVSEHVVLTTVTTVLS

Structure (SMILES): Cc1nc2ccc(NC(=O)Nc3ccnc4cccnc34)cc2o1.Cl [SB-334867, 1-(2-methylbenzoxazol-6-yl)-3-[1], [5]naphthyridin-4-yl-urea hydrochloride]
- displacement of specific binding ([1]; 10 µM, MT3 (melatonin)): 102%
- % Control (10 µM) Mean SB ([1]; % of control specific binding): -1.6%
- % Control (10 µM) Mean SB [2]: 100.3%
- % Control (10 µM) Mean SB [3]: 95.9%
- % Control (10 µM) Mean SB [4]: 101.2%
- % Control (10 µM) Mean SB [5]: 106.9%
- % Control (10 µM) Mean SB [6]: 118.5%
- % Control (10 µM) Mean SB [7]: 110.7%
- % Control (10 µM) Mean SB [8]: 118.6%
- displacement of specific binding ([9]; 10 µM, A2A (adenosine)): 89%
- % Control (10 µM) Mean SB ([9]; % of control specific binding): 10.6%
- % Control (10 µM) Mean SB [10]: 102.9%
- % Control (10 µM) Mean SB [11]: 98.6%
- displacement of specific binding ([12]; 10 µM, 5HT2C (serotonin 2C)): 70%
- % Control (10 µM) Mean SB ([12]; % of control specific binding): 30.4%
- % Control (10 µM) Mean SB [13]: 107.7%
- % Control (10 µM) Mean SB [14]: 96.5%
- % Control (10 µM) Mean SB [15]: 85.9%
- % Control (10 µM) Mean SB [16]: 103.6%
- % Control (10 µM) Mean SB [17]: 97.3%
- % Control (10 µM) Mean SB [18]: 84.1%
- % Control (10 µM) Mean SB [19]: 91.8%
- % Control (10 µM) Mean SB [20]: 106.6%
- % Control (10 µM) Mean SB [21]: 106.1%
- % Control (10 µM) Mean SB [22]: 102.3%
- % Control (10 µM) Mean SB [23]: 103.3%
- % Control (10 µM) Mean SB [24]: 89.4%
- % Control (10 µM) Mean SB [25]: 96.1%
- % Control (10 µM) Mean SB [26]: 108.1%
- % Control (10 µM) Mean SB [27]: 97%
- displacement of specific binding ([28]; 10 µM, A3): 63%
- % Control (10 µM) Mean SB ([28]; % of control specific binding): 37.5%
- % Control (10 µM) Mean SB [29]: 92.3%
- displacement of specific binding ([30]; 10 µM, P2Y (purinergic 2Y)): 64%
- % Control (10 µM) Mean SB ([30]; % of control specific binding): 36.4%
- % Control (10 µM) Mean SB [31]: 97.3%

Structure (SMILES): CNC(=O)[C@@H](c1ccccc1)N1CCc2cc(OC)c(OC)cc2[C@@H]1CCc1ccc(C(F)(F)F)cc1 [almorexant, (2R)-2-[(1S)-6,7-Dimethoxy-1-[2-(4-trifluoromethyl-phenyl)-ethyl]-3,4-dihydro-1H-isoquinolin-2-yl]-N-methyl-2-phenyl-acetamide]
- HCRTR1 RO ([32]; in vivo): 50–60%
- HCRTR1 RO (in words) ([32]; in vivo): returned to basal levels
- HCRTR1 RO, maximum ([32]; in vivo): 59%
- receptor occupancy at 30 mg/kg ([32]; ip, read-out: HCRTR1 occupancy): ~50%
